Laboratory results: patent US7005425B2, “Method for treating arrhythmias” (CV Therapeutics, Inc., priority 2002, dated 2006)

What was measured:
awake rats = test: Telemetry studies of heart rate in awake rats; assay type: in vivo, Rats (Sprague Dawley); settings: CVT-510 20 μg/kg ip alone
Protocol: Rats (Sprague Dawley) weighing 300–400 gms were purchased from Simonsen laboratories. CVT-3619 was dissolved in DMSO and further diluted in saline. CVT-510 was dissolved in saline. Ketamine was purchased from Fort Dodge Animal Health, Xylazine from Bayer and Acepromazine Maleate from Fermenta Animal Health Co. Metoprolol and propranolol were purchased from SIGMA. Esmolol was obtained from a local pharmacy.
For these studies, rats were instrumented with radiotelemetered transmitters (Data Sciences) at least 3 weeks prior to experimentation. Animals were anesthetized by peritoneal injection of a “cocktail” (1 ml/kg) containing Ketamine (75 mg/ml), Xylazine (5 mg/ml), and Acepromazine (1 mg/ml). After 20–30 minutes of induction of anesthesia, a midline laparotomy was performed. The transmitter for recordings of ECG, blood pressure and body temperature was placed in the abdominal cavity, and secured to the abdominal muscles. Two electrocardiographic leads were tunneled through the subcutaneous—one toward the upper left shoulder and the other to the right thigh, and secured with sutures. A fluid filled sensor catheter was inserted in the descending aorta above the iliac bifurcation for measurement of blood pressure. The tip of the telemetry catheter was located in the abdominal aorta just caudal to the renal arteries. Once the transmitter and leads were in place and determined to be functioning properly, the abdominal wall was sutured. After recovery from anesthesia, the rats were housed individually in cages placed on their respective receivers. The ECG, blood pressure and temperature were recorded and heart rate measured by a Dataquest ART Gold system (Version 2.2; Data Sciences Intl). The system consisted of a transmitter, i.e., biopotential sensor (Model TL11M2-C50-PXT), receivers (Model RPC-1), a consolidation matrix (BCM 100), a personal computer (Compaq DeskPro Series 3574) and Dataquest 4 software. Heart rate, blood pressure and temperature were measured at 5-minute intervals. Each recording lasted 10 seconds and all cardiac cycles within this period were averaged. Animals were given various drugs in a randomized manner after recording the baseline data for at least two hours.
A subgroup of animals was implanted with osmotic pumps containing CVT-510 for combination experiments. […]
The slowing of heart rate caused by each treatment was quantified by determining the area under the curve (AUC), using the trapezoidal method for calculations. Data used for analysis was the area under/over the curve calculated using change form baseline data (untreated animals). The data was analyzed for the magnitude as well as the duration of bradycardia caused by each treatment. […]

[1] = Plasma concentrations of CVT-510 in rats (LC-MS-MS); assay type: in vivo, Rats (Sprague Dawley); settings: subcutaneous osmotic pump, 20 μg/kg/hr
Source text: A subgroup of animals was implanted with osmotic pumps containing CVT-510 for combination experiments. After 7 days or more of having been implanted with radio-telemetry transmitters for recording ECG (L-2), and verifying that the transmitters were functioning, each rat was implanted with an Alzet mini-osmotic pump. Under anesthesia (see above) and sterile conditions, one Alzet mini-osmotic pump, was implanted subcutaneously (SC) in the interscapular area of each rat. The osmotic pumps were filled with either vehicle or CVT-510 (to deliver a dose of 20 μg/kg/hr).
Carotid artery was catheterized to obtain serial blood samples for the analysis of CVT-510 plasma concentrations. Animals were anesthetized by peritoneal injection of a “cocktail” (1 ml/kg) containing Ketamine (75 mg/ml), Xylazine (5 mg/ml), and Acepromazine (1 mg/ml). After a 20–30 min. of induction of anesthesia, a midline incision was made in the neck region to expose the external carotid artery. […]
CVT-510 plasma level analysis was performed as follows. […] Concentration of CVT-510 in protein precipitation filtrates were analyzed by LC-MS-MS using a Waters Alliance 2690 HPLC system (Millford, Mass.) coupled to a Waters/Micromass Quattro Ultima triple quadrupole mass spectrometer (Millford, Mass.). […]

OC[C@H]1O[C@@H](n2cnc3c(N[C@@H]4CCOC4)ncnc32)[C@H](O)[C@@H]1O [CVT-510, 6-(3-(R)-aminotetrahydrofuranyl)purine riboside]
effect on heart rate (FIG. 3) (awake rats): transiently lowers the heart rate below baseline levels | effect on heart rate (FIG. 4) (awake rats): slowed the heart rate in a dose dependent manner | plasma concentration of CVT-510 [1]: 7.5 ± 1 ng/mL
